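Interpolation was linear, between the two tested concentrations surrounding the appropriate level; five concentrations were tested over 48 hours in 96-well plates. Here, GI50 denotes the concentration required for 50% inhibition of growth.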 Calls of active or inactive are those of the source. No stated cut-off is given here; in the data, active = GI50 up to about 1.1 µM and inactive = higher.
Experiments:
Test in all cases: inhibition of tumour cell growth, NCI panel, 48 h
786-0 = system: 786-0
A498 = system: A498
A549 = system: A549
ACHN = system: ACHN
BT-549 = system: BT-549
CAKI-1 = system: CAKI-1
COLO 205 = system: COLO 205
DU-145 = system: DU-145
EKVX = system: EKVX
HCT-116 = system: HCT-116
HCT-15 = system: HCT-15
HOP-62 = system: HOP-62
HOP-92 = system: HOP-92
HT-29 = system: HT-29
Hs-578T = system: Hs-578T
IGROV-1 = system: IGROV-1
K562 = system: K562
KM12 = system: KM12
LOX IMVI = system: LOX IMVI
M14 = system: M14
MCF7 = system: MCF7
MDA-MB-231 = system: MDA-MB-231
MDA-MB-435 = system: MDA-MB-435
MDA-N = system: MDA-N
MOLT-4 = system: MOLT-4
Malme-3M = system: Malme-3M
NCI-H226 = system: NCI-H226
NCI-H23 = system: NCI-H23
NCI-H460 = system: NCI-H460
NCI-H522 = system: NCI-H522
NCI/ADR-RES = system: NCI/ADR-RES
OVCAR-3 = system: OVCAR-3
OVCAR-4 = system: OVCAR-4
OVCAR-5 = system: OVCAR-5
OVCAR-8 = system: OVCAR-8
PC-3 = system: PC-3
RPMI-8226 = system: RPMI-8226
RXF 393 = system: RXF 393
SF-268 = system: SF-268
SF-295 = system: SF-295
SF-539 = system: SF-539
SK-MEL-28 = system: SK-MEL-28
SK-MEL-2 = system: SK-MEL-2
SK-MEL-5 = system: SK-MEL-5
SK-OV-3 = system: SK-OV-3
SN12C = system: SN12C
SNB-19 = system: SNB-19
SNB-75 = system: SNB-75
SR = system: SR
SW-620 = system: SW-620
T47D = system: T47D
TK-10 = system: TK-10
U-251 = system: U-251
UACC-257 = system: UACC-257
UACC-62 = system: UACC-62
UO-31 = system: UO-31
CCRF-CEM = system: CCRF-CEM
HL-60 = system: HL-60

For `O=C1Nc2ccc(S(=O)(=O)O)cc2/C1=N/Nc1ccccc1[N+](=O)[O-]`, the GI50 (786-0) was > 100 µM (inactive), the GI50 (A498) was 70.1 µM (inactive) and the GI50 (A549) was > 100 µM (inactive). For the same compound, the GI50 (ACHN) was > 100 µM (inactive), the GI50 (BT-549) was > 100 µM (inactive) and the GI50 (CAKI-1) was > 100 µM (inactive). For the same compound, the GI50 (COLO 205) was > 100 µM (inactive), the GI50 (DU-145) was > 100 µM (inactive) and the GI50 (EKVX) was > 100 µM (inactive). For the same compound, the GI50 (HCT-116) was > 100 µM (inactive), the GI50 (HCT-15) was 84.1 µM and the GI50 (HOP-62) was > 100 µM (inactive). The GI50 (HOP-92) was > 100 µM (inactive), the GI50 (HT-29) was > 100 µM (inactive) and the GI50 (Hs-578T) was > 100 µM (inactive). For the same compound, the GI50 (IGROV-1) was > 100 µM (inactive), the GI50 (K562) was 5.64 µM (inactive) and the GI50 (KM12) was > 100 µM (inactive). The GI50 (LOX IMVI) was > 100 µM (inactive), the GI50 (M14) was > 100 µM (inactive) and the GI50 (MCF7) was > 100 µM (inactive). The GI50 (MDA-MB-231) was > 100 µM (inactive), the GI50 (MDA-MB-435) was > 100 µM (inactive) and the GI50 (MDA-N) was > 100 µM (inactive). For the same compound, the GI50 (MOLT-4) was > 100 µM (inactive), the GI50 (Malme-3M) was > 100 µM (inactive) and the GI50 (NCI-H226) was > 100 µM (inactive). The GI50 (NCI-H23) was > 100 µM (inactive), the GI50 (NCI-H460) was > 100 µM (inactive) and the GI50 (NCI-H522) was > 100 µM (inactive). For the same compound, the GI50 (NCI/ADR-RES) was > 100 µM (inactive), the GI50 (OVCAR-3) was > 100 µM (inactive) and the GI50 (OVCAR-4) was > 100 µM (inactive). The GI50 (OVCAR-5) was 42.9 µM (inactive), the GI50 (OVCAR-8) was > 100 µM (inactive) and the GI50 (PC-3) was > 100 µM (inactive). The GI50 (RPMI-8226) was > 100 µM (inactive), the GI50 (RXF 393) was > 100 µM (inactive) and the GI50 (SF-268) was > 100 µM (inactive). For the same compound, the GI50 (SF-295) was > 100 µM (inactive), the GI50 (SF-539) was > 100 µM (inactive) and the GI50 (SK-MEL-28) was > 100 µM (inactive). The GI50 (SK-MEL-2) was > 100 µM (inactive), the GI50 (SK-MEL-5) was > 100 µM (inactive) and the GI50 (SK-OV-3) was 97.9 µM (inactive). The GI50 (SN12C) was > 100 µM (inactive), the GI50 (SNB-19) was > 100 µM (inactive) and the GI50 (SNB-75) was > 100 µM (inactive). For the same compound, the GI50 (SR) was > 100 µM (inactive), the GI50 (SW-620) was > 100 µM (inactive) and the GI50 (T47D) was > 100 µM (inactive). For the same compound, the GI50 (TK-10) was > 100 µM (inactive), the GI50 (U-251) was > 100 µM (inactive) and the GI50 (UACC-257) was > 100 µM (inactive). The GI50 (UACC-62) was 35 µM (inactive) and the GI50 (UO-31) was > 100 µM (inactive).
With `O=c1[nH]c(N/N=C\C(=N/Nc2nc3ccccc3c(=O)[nH]2)C(O)C(O)C(O)CO)nc2ccccc12` (stereo not given) the GI50 (786-0) was > 100 µM (inactive), the GI50 (A498) was > 100 µM (inactive) and the GI50 (A549) was > 100 µM (inactive). For the same compound, the GI50 (ACHN) was > 100 µM (inactive), the GI50 (BT-549) was > 100 µM (inactive) and the GI50 (CAKI-1) was > 100 µM (inactive). The GI50 (CCRF-CEM) was > 100 µM (inactive), the GI50 (COLO 205) was > 100 µM (inactive) and the GI50 (DU-145) was > 100 µM (inactive). For the same compound, the GI50 (EKVX) was > 100 µM (inactive), the GI50 (HCT-116) was > 100 µM (inactive) and the GI50 (HCT-15) was > 100 µM. For the same compound, the GI50 (HL-60) was > 100 µM (inactive), the GI50 (HOP-62) was > 100 µM (inactive) and the GI50 (HOP-92) was > 100 µM (inactive). The GI50 (HT-29) was > 100 µM (inactive), the GI50 (Hs-578T) was > 100 µM (inactive) and the GI50 (IGROV-1) was > 100 µM (inactive). The GI50 (K562) was > 100 µM (inactive), the GI50 (KM12) was > 100 µM (inactive) and the GI50 (LOX IMVI) was > 100 µM (inactive). For the same compound, the GI50 (M14) was > 100 µM (inactive), the GI50 (MCF7) was > 100 µM (inactive) and the GI50 (MDA-MB-231) was > 100 µM (inactive). The GI50 (MDA-MB-435) was > 100 µM (inactive), the GI50 (MDA-N) was > 100 µM (inactive) and the GI50 (MOLT-4) was > 100 µM (inactive). For the same compound, the GI50 (NCI-H226) was > 100 µM (inactive), the GI50 (NCI-H23) was > 100 µM (inactive) and the GI50 (NCI-H460) was > 100 µM (inactive). The GI50 (NCI/ADR-RES) was > 100 µM (inactive), the GI50 (OVCAR-3) was > 100 µM (inactive) and the GI50 (OVCAR-5) was > 100 µM (inactive). The GI50 (OVCAR-8) was > 100 µM (inactive), the GI50 (PC-3) was > 100 µM (inactive) and the GI50 (RPMI-8226) was > 100 µM (inactive). The GI50 (SF-268) was > 100 µM (inactive), the GI50 (SF-295) was > 100 µM (inactive) and the GI50 (SF-539) was > 100 µM (inactive). For the same compound, the GI50 (SK-MEL-28) was > 100 µM (inactive), the GI50 (SK-MEL-2) was > 100 µM (inactive) and the GI50 (SK-MEL-5) was > 100 µM (inactive). For the same compound, the GI50 (SK-OV-3) was > 100 µM (inactive), the GI50 (SN12C) was > 100 µM (inactive) and the GI50 (SNB-19) was > 100 µM (inactive). The GI50 (SNB-75) was > 100 µM (inactive), the GI50 (SR) was > 100 µM (inactive) and the GI50 (SW-620) was > 100 µM (inactive). For the same compound, the GI50 (T47D) was > 100 µM (inactive), the GI50 (TK-10) was > 100 µM (inactive) and the GI50 (U-251) was > 100 µM (inactive). For the same compound, the GI50 (UACC-257) was > 100 µM (inactive), the GI50 (UACC-62) was > 100 µM (inactive) and the GI50 (UO-31) was > 100 µM (inactive).
